From patent US7282507B2, “Indole derivatives as selective androgen receptor modulators (SARMS)” (Janssen Pharmaceutica N.V., priority 2004, dated 2007)

Legend:
[1] = target: T1, androgen receptor (rat ventral prostate cytosol) (Rattus norvegicus, UniProt P15207); experiment: Androgen Receptor Binding Using Rat Ventral Prostate Cytosol; details: for inhibition at 1 µM: read-out: % Inhibition, Androgen Receptor Binding (Rat Cytosol); for IC50: read-out: IC50 (nM), Androgen Receptor Binding (Rat Cytosol)
T1 construct: from tissue; host or cells: ventral prostate cytosol of castrated male Sprague Dawley or Wistar rats
T1 sequence (P15207 1-902): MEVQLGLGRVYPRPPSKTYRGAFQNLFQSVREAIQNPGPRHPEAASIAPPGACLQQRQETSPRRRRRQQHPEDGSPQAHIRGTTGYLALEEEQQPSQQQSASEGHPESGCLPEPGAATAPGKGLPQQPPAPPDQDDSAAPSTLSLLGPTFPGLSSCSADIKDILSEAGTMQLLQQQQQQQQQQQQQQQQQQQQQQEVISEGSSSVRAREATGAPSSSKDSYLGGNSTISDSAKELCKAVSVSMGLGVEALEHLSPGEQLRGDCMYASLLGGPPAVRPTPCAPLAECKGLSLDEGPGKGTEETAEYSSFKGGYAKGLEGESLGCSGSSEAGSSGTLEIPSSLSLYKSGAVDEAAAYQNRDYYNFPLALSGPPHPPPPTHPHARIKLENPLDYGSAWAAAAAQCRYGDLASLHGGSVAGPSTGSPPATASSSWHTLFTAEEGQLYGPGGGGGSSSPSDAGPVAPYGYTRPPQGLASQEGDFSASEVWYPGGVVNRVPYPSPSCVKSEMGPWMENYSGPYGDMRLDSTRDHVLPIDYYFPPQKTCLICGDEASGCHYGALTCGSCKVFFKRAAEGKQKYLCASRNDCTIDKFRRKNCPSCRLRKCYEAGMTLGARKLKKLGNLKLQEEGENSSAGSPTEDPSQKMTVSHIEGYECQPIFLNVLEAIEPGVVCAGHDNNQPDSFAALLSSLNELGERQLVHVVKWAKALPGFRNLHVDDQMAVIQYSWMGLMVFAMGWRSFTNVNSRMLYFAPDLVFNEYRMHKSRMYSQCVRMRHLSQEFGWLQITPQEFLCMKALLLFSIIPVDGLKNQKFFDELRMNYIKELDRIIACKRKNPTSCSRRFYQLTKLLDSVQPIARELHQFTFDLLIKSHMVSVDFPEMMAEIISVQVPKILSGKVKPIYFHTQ
Description: The assay was run on a 96 well plate with each well filled with a total reaction volume 150 μL, of a solution containing 5 pmol androgen receptor LBD (Panvera) or 30 μL of freshly prepared rat cytosol, 0.5 nM [^3H] […] (TED buffer contains 10 mM Tris.HCl pH 7.4, 1 mM sodium molybdate, 1.5 mM EDTA, 1 mM DTT and 10% (v/v) glycerol.)
On day one, the solution containing receptor, tracer and TED buffer was distributed into a 96 well plate. Diluted test compound or control vehicle was then added to individual wells and the plate incubated at 4° C. overnight.
On day two, to each well was then added 20 μL human γ-globulin (ICN 823102), prepared at 25 mg/ml in TE pH 8.0, and 55 μL 40% polyethylene glycol 8000 (J T Baker U222-08), prepared in TE pH 8.0. The plate was incubated at 4° C. for 60 minutes. During incubation, the harvester was rinsed with 10% PEG 8000, prepared in TE pH 8.0, and a GF/C Unifilter-96 was pre-wet with 10% PEG. The binding reaction was filtered, the retentate was washed three times with 10% PEG and dried under vacuum for a couple of minutes, then dried at 50° C. for 5 min and the plate was bottom sealed. Next, 25 μL of Microscint-20 (Packard) was added to the filter wells and the plate was top sealed. The plate wells were then counted on a TopCount (Packard).
Rat Prostate Cytosol Preparation:
Male Sprague Dawley or Wistar rats (Charles River, 200-300 g) were used for each preparation. The day before preparing the cytosol, the rats were castrated using standard surgical procedures.
The rats were euthanized by carbon dioxide asphyxiation. The rat prostates were quickly removed and placed on ice in pre-chilled, pre-weighed 50 mL plastic tubes. No more than five prostates were placed into one tube. The tubes were then weighed and the prostate tissue wet weights calculated.
To the chilled prostate tissue was then added […] of chilled homogenization buffer. The homogenization buffer was freshly prepared by mixing 10 mM Tris.HCl, pH 7.4, 1 mM sodium molybdate, 1.5 mM EDTA, 1 mM dithiothreitol, 10% (v/v) glycerol and 1% protease inhibitor cocktail (Sigma P 8340).
The prostate tissue was homogenized in a cold room using a pre-chilled Polytron PT3000 homogenizer (Brinkmann). Homogenization was performed at a speed setting of 20, three times for 10 sec bursts. The tubes containing the prostate tissue was kept on ice while homogenizing. The homogenate was allowed to rest on ice for 20 sec between bursts.
The homogenate was then placed into pre-chilled 3 mL polycarbonate ultracentrifuge tubes and centrifuged in the TLA-100 rotor of a TL-100 ultracentrifuge for 12 min at 100,000 rpm at 4° C. The resulting supernatant was stored in 1 mL aliquots at −80° C. until needed.
Binding to the androgen receptor was determined according to the protocol described in Example 86 using the above prepared rat cytosol.
% Inhibition was determined by testing dilutions of the test compound (usually duplicates of 10 μM) in the binding assay. Counts per well were measured and percents of inhibition determined. […] Counts per well were measured and IC50s determined by linear regression.

[2] = target: T2, androgen receptor (AdEasy+rAR, L929 cells) (Rattus norvegicus, UniProt P15207); experiment: L929 Androgen Receptor Functional Assay, Adenovirus Transduction; format: cell-based; details: agonist testing, 3000 nM
T2 construct: expressed in transfected cells; host or cells: L929 cells transduced with adenovirus AdEasy+rAR
T2 sequence (P15207 1-902): T1 sequence (P15207 1-902)
Description: L929 cells were plated in 96-well plates at 20,000 cells per well, in DMEM/F12 (GIBCO) containing 10% (v/v) charcoal-treated fetal bovine serum (Hyclone) and lacking phenol red. The plates were then incubated overnight at 37° C. in 5% (v/v) humidified CO2.
Test compound dilutions were prepared in 100% (v/v) DMSO, if necessary. Each dilution was made to 1250× the final desired assay concentration.
First, 2 mL of DMEM/F12 lacking phenol red was pipetted into the wells of a 2-mL 96-well assay block. Next, 4 μL of the 1250× test compound dilutions were pipetted into each well of the assay block. The mixtures within the well were then carefully mixed by pipette.
In a 15 mL or 50 mL sterile centrifuge tube, a 2.5 nM (2.5×) dilution of R1881 (methyl-trienolone) in DMEM/F12 lacking phenol red was prepared.
In a second 15 mL or 50 mL centrifuge tube a solution containing an equal volume of DMEM to the first and an equal volume of 100% (v/v) DMSO to the volume of R1881 used in the first tube was prepared.
In a 15 mL or 50 mL sterile centrifuge tube, a dilution in DMEM/F12 of the adenovirus AdEasy+rAR at an moi of 1:500 per well was prepared.
The medium was removed from the 96-well plates by inversion and dried, inverted, very briefly. As soon as possible after medium removal, 40 μL of the diluted unlabeled test compound was added to each well, in duplicate. To each well designated for antagonist testing was added 40 μL of the 2.5 nM R1881 dilution to the wells for antagonist testing. To each well designated for agonist testing was added 40 μL of the DMSO dilution. Then 20 μL of the diluted adenovirus were added to all wells. The plates were incubated for 48 hours at 37° C. in 5% (v/v) humidified CO2.
To each well was added 100 μL of Steady-Glo luciferase assay substrate (Promega) and the plates were placed on a rotary shaker for 1 min. The plates were then incubated at room temperature in the dark for one hour. The contents of each well were then transferred to a white microtiter plate (Packard) and read on a Luminoskan Ascent (Thermo Lab Systems).
L929 AR percent activity was determined by testing dilutions of the test compound using a concentration of 3000 nM unless otherwise noted. L929 percent inhibition was determined by testing dilutions of the test compound using a concentration of 3000 nM. […] Luciferase activity per well were measured and EC50s and IC50s determined by linear regression.

[3] = test system: testosterone-enhanced ventral prostate and seminal vesicle weights; experiment: Ventral Prostate and Seminal Vesicle Weight in vivo Assay; parameters: species or system rat; details: immature castrated male Sprague Dawley rats, once daily for five days, usually orally 40 mg/kg, with testosterone propionate 2 mg/kg s.c. Also: key: 'active' if the non weight adjusted prostate weight was ≦40 mg or the % Inhibition prostate weight, body weight adjusted was ≧40% @ 2 mg/day dosage; ID50's, if determined, of ≦15 mg/day also indicated an 'active' compound; listed herein as 'inactive' as they did not meet the specified criteria defined above.
Procedure, shortened: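 Wet weights of ventral prostate and seminal vesicles were taken on day six. Castrated immature male Sprague Dawley rats had received five daily doses of testosterone propionate (2 mg/kg s.c.) together with test compound, typically 40 mg/kg orally. Activity was scored from absolute prostate weight or body-weight-adjusted % inhibition.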

Row | SMILES | IC50 [1] [nM] | % Inhibition, Androgen Receptor Binding (Rat Cytosol) ([1]; Concentration 1000 nM) [%] | also measured
1 | CC(O)(Sc1ccc(N)cc1)c1cc2cc(Cl)c(C(F)(F)F)cc2[nH]1 (racemic) [Compound 265] | – | – | % Inhibition, Androgen Receptor Binding (Rat Cytosol) ([1]; Concentration 3000 nM): 93.5%; % Activity, L929 androgen receptor functional assay [2]: −1%
2 | CC(O)(CS(=O)(=O)Cc1ccccc1)c1cc2cc([N+](=O)[O-])c(C(F)(F)F)cc2[nH]1 (racemic) [Compound 162] | – | – | % Inhibition, Androgen Receptor Binding (Rat Cytosol) ([1]; Concentration 3000 nM): 0.69%; % Activity, L929 androgen receptor functional assay [2]: 2%; active / inactive: inhibition of testosterone-enhanced prostate weight [3]: inactive
3 | CC(O)(Sc1ccc(N)cc1)c1cc2cc([N+](=O)[O-])c(C(F)(F)F)cc2[nH]1 (racemic) [Compound 266] | – | – | % Inhibition, Androgen Receptor Binding (Rat Cytosol) ([1]; Concentration 3000 nM): 12.4%; % Activity, L929 androgen receptor functional assay [2]: −4%; active / inactive: inhibition of testosterone-enhanced prostate weight [3]: inactive
4 | CN(C)c1ccc(S(=O)(=O)CC(C)(O)c2cc3cc(Cl)c(C(F)(F)F)cc3[nH]2)cc1 (racemic) [Compound 126] | – | – | % Inhibition, Androgen Receptor Binding (Rat Cytosol) ([1]; Concentration 3000 nM): −30%; % Activity, L929 androgen receptor functional assay [2]: −5%; active / inactive: inhibition of testosterone-enhanced prostate weight [3]: inactive
5 | Cc1ccc(CN2CCC(O)(c3cc4cc([N+](=O)[O-])c(C(F)(F)F)cc4[nH]3)CC2)cc1 [Compound 42] | 7100 | – | inhibition at 1 µM ([1]; Concentration 1000 nM): 23%
6 | CC(O)(CS(=O)(=O)c1ccc(F)cc1)c1cc2cc(C#N)c(C(F)(F)F)cc2[nH]1 (stereo not drawn) [Compound 110] | – | – | inhibition at 1 µM ([1]; Concentration 1000 nM): 58.5%
7 | COc1cccc(CN2CCC(O)(c3cc4cc([N+](=O)[O-])c(C(F)(F)F)cc4[nH]3)CC2)c1 [Compound 39] | > 6100 | – | % Inhibition, Androgen Receptor Binding (Rat Cytosol) ([1]; Concentration 1000 nM, 1 µM): 6%
8 | O=[N+]([O-])c1cc2cc(C3(O)CCN(Cc4ccc(Cl)c(Cl)c4)CC3)[nH]c2cc1C(F)(F)F [Compound 43] | 9100 | 5.8 | –
9 | CC(O)(c1cc2cc([N+](=O)[O-])c(C(F)(F)F)cc2[nH]1)S(=O)(=O)c1ccc(Cl)c(Cl)c1 (racemic) [Compound 255] | – | 26 | –
10 | CC(O)(C[S+]([O-])c1ccccc1)c1cc2cc(Cl)c(C(F)(F)F)cc2[nH]1 (stereo not drawn) [Compound 115] | 1300 | – | % Inhibition, Androgen Receptor Binding (Rat Cytosol) ([1]; Concentration 1000 nM, 1 µM): 54.5%
11 | CC(C)SC(C)(CO)c1cc2cc([N+](=O)[O-])c(C(F)(F)F)cc2[nH]1 (racemic) [Compound 268] | – | – | % Inhibition, Androgen Receptor Binding (Rat Cytosol) ([1]; Concentration 3000 nM): −3.3%; % Activity, L929 androgen receptor functional assay [2]: 9%; active / inactive: inhibition of testosterone-enhanced prostate weight [3]: inactive
12 | OC1(c2cc3cc(Cl)c(C(F)(F)F)cc3[nH]2)CCN(Cc2ccc(F)cc2)CC1 [Compound 28] | 7000 | −3.4 | –
13 | COc1ccc(CN2CCC(O)(c3cc4cc(Cl)c(C(F)(F)F)cc4[nH]3)CC2)cc1 [Compound 35] | 4200 | −19 | –
14 | CS(=O)(=O)n1c(C2(O)CCN(C(=O)c3ccc(Cl)cc3)CC2)cc2cc(Cl)c(C(F)(F)F)cc21 [Compound 24] | – | 2 | –
15 | OC1(c2cc3cc(Cl)c(C(F)(F)F)cc3[nH]2)CCN(Cc2ccc(C(F)(F)F)cc2)CC1 [Compound 33] | 29000 | 11 | –
16 | OC1(c2cc3cc(Cl)c(C(F)(F)F)cc3[nH]2)CCN(Cc2ccc(Cl)cc2)CC1 [Compound 31] | 4050 | 20 | –
17 | COc1cccc(CN2CCC(O)(c3cc4cc(Cl)c(C(F)(F)F)cc4[nH]3)CC2)c1 [Compound 29] | 4700 | −1.8 | –
18 | O=[N+]([O-])c1cc2cc(C3(O)CCN(Cc4ccc(Cl)cc4)CC3)[nH]c2cc1C(F)(F)F [Compound 41] | 2300 | – | % Inhibition, Androgen Receptor Binding (Rat Cytosol) ([1]; Concentration 1000 nM, 1 µM): 20%
19 | OC1(c2cc3cc(Cl)c(C(F)(F)F)cc3[nH]2)CCN(Cc2ccc(Cl)c(Cl)c2)CC1 [Compound 36] | > 100000 | −34 | –
20 | Cc1ccc(CN2CCC(O)(c3cc4cc([N+](=O)[O-])c(C(F)(F)F)cc4[nH]3)CC2)cc1 [Compound 27] | 3100 | – | –
21 | CC(C)(C)c1ccc(CN2CCC(O)(c3cc4cc(Cl)c(C(F)(F)F)cc4[nH]3)CC2)cc1 [Compound 32] | 43000 | 34 | –
